Data: patent US7312248B2, “Control of parasites in animals by the use of novel trifluoromethanesulfonanilide oxime ether derivatives” (Schering-Plough Animal Health Corporation, priority 2004, dated 2007)
Read-outs that look alike come from different tables or passages of the source.

Tests used:
Type in all cases: in vivo
[1] = tested on: Brown Dog Tick (Rhipicephalus sanguineus); assay: Rapid screening protocol for topical application on brown dog ticks; settings: 48 h; Laboratory 2 F data
[2] = tested on: Brown Dog Tick (Rhipicephalus sanguineus); assay: Dose response protocol for topical application on brown dog ticks (LD50); settings: 24 h mortality
Protocol: e) Dose response protocol for topical application on brown dog ticks (Rhipicephalus sanguineus): The test determines the level of insecticidal activity of sample compounds or formulations when applied topically on brown dog ticks. Sample compounds were stored prior to use in a freezer (−5±1° C.), unless otherwise specified.
• Mortality: A tick is defined as dead after it gives no apparent response when touched lightly or gently breathed upon, while observed for 30 seconds. • LD50 (Lethal Dose 50): The dose of a topically applied treatment at which 50% of the dog ticks are killed. • Reference compound: To assess an experimental compound for significant acaricidal activity a single dose level is chosen, which is based upon known results from previous experiments using a commercially available active i.e., a reference compound. The reference compound selected is one in common use, and one that has a similar mode of action against the Brown Dog Tick (i.e., the test species). • Recovery container: A recovery container consists of a 500 ml round plastic container measuring 115 mm diameter and 70 mm height, with a tight fitting lid that has 10 small (˜1 mm) holes inserted for air exchange. A 90 mm diameter piece of filter paper was placed on the bottom of the container and moistened with 1 mL of de-stilled water.
Adult, mixed sex, Brown Dog Ticks (Rhipicephalus sanguineus) were reared as follows: (i) cultured, (ii) transferred unfed, to a testing laboratory, and (iii) then maintained under controlled conditions (i.e., temp. 18°±2° C., humidity 75±5% RH). The ticks used were selected for vigor prior to testing, i.e., capable of actively walking and responsive to being touched or gently breathed upon.
During the testing, the temperature was maintained at 25±1° C., and the humidity was ambient. Seven dose levels (concentrations) of sample compound, in the form of serial dilutions in acetone, were derived from a pilot study and covered a range that produced very low to very high mortality. Groups of ten ticks were treated topically (on the abdomen) with 1 μL of a single dose level of the sample compound. Each test was replicated four times, i.e., employing a total of 40 ticks per dose level of each sample compound. As a control, ten ticks were treated with solvent only (acetone) for each test. Following the treatment, the ticks were held in recovery containers maintained under appropriate rearing conditions for 24 hours. Mortality resulting from the treatments was recorded at 24 hours. […] Press, London (1971).]

[3] = tested on: cat flea (Ctenocephalides felis); assay: whole plant or invertebrate; settings: Ctenocephalides felis
Outline: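 Single-dose screen at 1.26 μg/cm^2: acetone solution dried for 24 h on a Coatasil-treated 159 mm^2 flask base, then 15 adult cat fleas aged 3-7 days per flask, four or more replicates, acetone control. Percent dead, meaning not moving or unable to right themselves, recorded after 8, 24 and/or 48 h at 25 °C and 75% RH.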

[4] = tested on: cat flea (Ctenocephalides felis); assay: Ctenocephalides felis adulticide assay: dose response (LC50)
Outline: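 Groups of 15 adult cat fleas, 3–7 days post-emergence, were exposed for 24 h at 25° C and 75% humidity to glass flask bases coated with six serial doses in acetone and dried for 24 h. Mortality was scored at 8 and 24 h, and LC50 was the surface-treatment concentration killing 50%.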

Haemonchus contortus = Haemonchus contortus larvacidal (larval development) assay; settings: 144 h, read-out: Haemonchus contortus LD99
Outline: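 Nematode eggs placed on agar containing compound (12 two-fold dilutions, final 0.024–50 μg/ml) and left 6 days to develop to L3. LD99 is the lowest concentration inhibiting development of 99% of larvae, derived from well titre (2^n−1) and top concentration.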

[5] = 24 h, read-out: C. felis Mortality (%) 24 h, 24 h, Laboratory 1 A data
[6] = 8 h, read-out: C. felis Mortality (%) 8 h, 8 h, Laboratory 2 B data
[7] = 24 h, read-out: C. felis Mortality (%) 24 h, 24 h, Laboratory 2 B data

SMILES | R. sanguineus Mortality (%) 48 h [1] [%] | R. sanguineus LD50 [2] [μg/tick] | mortality at 1.26 µg/cm2, 1.26 µg/cm2 [3, 5] [%] | C. felis LC50 ([4]; Laboratory 1 C data) [μg/cm^2] | C. felis LC50 ([4]; Laboratory 2 D data) | mortality at 1.26 µg/cm2, 1.26 µg/cm2 [3, 6] [%] | mortality at 1.26 µg/cm2, 1.26 µg/cm2 [3, 7] [%] | IC99 (Haemonchus contortus) [µg/mL]
C=CCO/N=C(\CC)c1cc(Cl)ccc1NS(=O)(=O)C(F)(F)F [Compound 156, N-[2-(1-allyloxyiminopropyl)-4-chlorophenyl]trifluoromethanesulfonamide] | 95 | 0.6 | 100 | 0.4 | 0.02 μg/cm^2 |  |  | 
CC/C(=N\OCC1CCCO1)c1cc(Cl)ccc1NS(=O)(=O)C(F)(F)F (stereo not drawn) [Compound 205] | 100 | 3.1 |  |  | 0.02^D μg/cm^2 | 97 | 98 | 
C/C(=N\OC(C)(C)C)c1cc(Cl)ccc1NS(=O)(=O)C(F)(F)F [Compound 223] | 97 | 1.4 |  |  | 0.04^D μg/cm^2 | 92 | 100 | 
CC/C(=N\OCC1CC1)c1cc(Cl)ccc1NS(=O)(=O)C(F)(F)F [Compound 196, N-[4-chloro-2-(1-cyclopropylmethoxyiminopropyl)phenyl]trifluoromethanesulfonamide] | 100 | 1.2 |  |  | 0.008^D μg/cm^2 | 96 | 100 | 
CC/C(=N\OC1CCCC1)c1cc(Cl)ccc1NS(=O)(=O)C(F)(F)F [Compound 155] | 92 | 1.5 | 100 | 0.2 | 0.02 μg/cm^2 |  |  | 
COCCO/N=C(\C)c1cc(Cl)ccc1NS(=O)(=O)C(F)(F)F [Compound 185, N-{4-chloro-2-[1-(2-methoxyethoxyimino)ethyl]phenyl}trifluoromethanesulfonamide] | 100 | 0.7 |  | 0.2 | 0.01 μg/cm^2 | 100 | 100 | 
CC/C(=N\OC(C)(C)C)c1cc(Cl)ccc1NS(=O)(=O)C(F)(F)F [Compound 224] | 95 | 1.5 |  |  | 0.04^D μg/cm^2 | 83 | 100 | 
C/C(=N\OCC1CC1)c1cc(Cl)ccc1NS(=O)(=O)C(F)(F)F [Compound 187, N-[4-chloro-2-(1-cyclopropylmethoxyiminoethyl)phenyl]trifluoromethanesulfonamide] | 100 | 1.0 |  | 0.1 | 0.005 μg/cm^2 | 100 | 100 | 
CCC/C(=N\OCC)c1cc(Cl)ccc1NS(=O)(=O)C(F)(F)F [Compound 193, N-[4-chloro-2-(1-ethoxyiminobutyl)phenyl]trifluoromethanesulfonamide] | 95 | 1.2 |  |  | 0.01^D μg/cm^2 | 88 | 100 | 
C#CCO/N=C(\C)c1cc(Cl)ccc1NS(=O)(=O)C(F)(F)F [Compound 202] | 100 | 0.9 |  |  | 0.01^D μg/cm^2 | 100 | 100 | 
C/C(=N\OCc1ccc(Cl)s1)c1cc(Cl)ccc1NS(=O)(=O)C(F)(F)F [Compound 194, N-{4-chloro-2-[1-(5-chlorothiophen-2-ylmethoxyimino)ethyl]phenyl}trifluoromethanesulfonamide] | 100 | 2.0 |  |  | 0.02^D μg/cm^2 | 100 | 100 | 
C/C(=N\OCC1CCCC1)c1cc(Cl)ccc1NS(=O)(=O)C(F)(F)F [Compound 189] | 100 | 2.2 |  |  | 0.01^D μg/cm^2 | 91 | 97 | 
CC/C(=N\OCc1cccs1)c1cc(Cl)ccc1NS(=O)(=O)C(F)(F)F [Compound 207, N-{4-chloro-2-[1-(thiophen-2-ylmethoxyimino)propyl]phenyl}trifluoromethanesulfonamide] | 100 | 2.5 |  |  | 0.007^D μg/cm^2 | 98 | 100 | 
CC/C(=N\Oc1ccc(F)cc1)c1cc(Cl)ccc1NS(=O)(=O)C(F)(F)F [Compound 130, N-{4-chloro-2-[1-(4-fluorophenoxyimino)propyl]phenyl}trifluoromethanesulfonamide] | 100 | 1.5 | 100 | 0.2 | 0.03 μg/cm^2 |  |  | 1.5
CC(C)/C(=N\Oc1ccc(Cl)cc1)c1cc(Cl)ccc1NS(=O)(=O)C(F)(F)F [Compound 215, N-{4-chloro-2-[1-(4-chlorophenoxyimino)-2-methylpropyl]phenyl}trifluoromethanesulfonamide] | 87 | 1.7 |  |  | 0.07^D μg/cm^2 | 82 | 100 | 
C/C(=N\OCC(F)(F)F)c1cc(Cl)ccc1NS(=O)(=O)C(F)(F)F [Compound 186] | 100 | 0.9 |  | 0.1 | 0.006 μg/cm^2 | 100 | 100 | 
C/C(=N\Oc1ccc(F)cc1)c1cc(Cl)ccc1NS(=O)(=O)C(F)(F)F [Compound 129, N-{4-chloro-2-[1-(4-fluorophenoxyimino)ethyl]phenyl}trifluoromethanesulfonamide] |  | 1.3 | 100 | 0.05 | 0.02 μg/cm^2 |  |  | 1.9
CC(C)ON=C(c1cc(Cl)ccc1NS(=O)(=O)C(F)(F)F)C1CCCCC1 (racemic) [Compound 210, N-[4-chloro-2-(cyclohexylisopropoxyiminomethyl)phenyl]trifluoromethanesulfonamide] | 100 | 2.7 |  |  | 0.1^D μg/cm^2 | 66 | 100 | 
C#CCO/N=C(\CC)c1cc(Cl)ccc1NS(=O)(=O)C(F)(F)F [Compound 208] | 100 | 0.8 |  |  | 0.02^D μg/cm^2 | 100 | 100 | 
